Read-outs that look alike come from different tables or passages of the source.
Assays:
[1] = tested on: HIV-1NL4-3; assay: HIV-1 infectivity assay in TZM-bl reporter cell line (LTR-luciferase, 48 h); assay type: cell-based; conditions: Human immunodeficiency virus 1, TZM-bl
Summary of the method: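 Read-out is luciferase from an integrated HIV-1 LTR reporter in TZM-bl cells, 48 h after HIV-1NL4-3 infection in the presence of 1 μM compound. Scale set by DMSO-treated wild-type-infected cells (0%) and Nef-defective virus (100% Nef-dependent effect). Cell Titer Blue measures cytotoxicity without virus.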

[2] = tested on: TZM-bl cell line; assay type: cell-based; conditions: human, 1 μM
Summary of the method: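 Luciferase read-out 48 h post-infection; compound at 1 μM during HIV-1NL4-3 infection of TZM-bl cells. Percent inhibition scaled to DMSO wild-type virus (0%) and DMSO Nef-defective virus (100% of Nef-dependent effect). Viability checked separately in uninfected cells by Cell Titer Blue.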

[3] = target: HIV-1 NefNL4-3 (Human immunodeficiency virus type 1 group M subtype B, UniProt P03406, A33V/T15A/T51N/V11I); assay: Surface plasmon resonance binding to recombinant full-length Nef (NL4-3); conditions: for T, minutes (residence time): 2-step induced fit, T = 1/koff2; for RU30/RUNef (extent of binding): response units at 30 μM relative to Nef immobilized on the SPR chip
[4] = tested on: HIV-1 NL4-3; assay: HIV-1 replication in normal donor PBMCs (p24 Gag AlphaLISA); assay type: cell-based; conditions: Table 1, 4 days, words (Not active, Borderline) where no bound is given; for IC50: Human immunodeficiency virus 1, NL43, PBMC, 96 h
Description: FIG. 4. Inhibition of HIV-1 replication by compounds disclosed herein in PBMCs. Donor PBMCs were infected with HIV-1 in the presence of inhibitor concentrations ranging from 1 to 1,000 nM or the DMSO carrier solvent as a negative control (0.1% DMSO final). Replication was assessed by p24 Gag AlphaLISA (Perkin Elmer) […]. Each donor was also infected with Nef-defective HIV-1 to establish the baseline for Nef-dependent enhancement of replication in each culture. Cytotoxicity was assessed in uninfected PBMCs over the same incubation period using the CellTiter-Blue assay (Promega). Data were fit by non-linear regression analysis (GraphPad Prism v.7.04) to determine the IC50 and CC50 values shown.
The tables also show data for HIV-1 Replication in normal donor peripheral blood mononuclear cells (PBMCs), which is assay is conducted as follows:
Non-HLA-typed buffy coats (Source: Pittsburgh Central Blood Bank, #E3755) are received and processed within 24 hours of blood donation. PBMCs are isolated via rocking for RBC separation following 1:1 dilution with PBS, followed by Ficoll gradient centrifugation. The lymphocyte fraction is removed and washed several times for a final concentration of ˜150-300×10^6 cells per donor. Cells are activated for 3 days with 1-5 μg/mL PHA (Sigma) and 50 U/mL IL-2. Cells are plated at 750,000 cells/ml and viability is checked at day 3 using the Cell Titer Blue assay (Promega). If cells are >90% viable, then they are infected with HIV-1 NL4-3, wild-type or Δ-Nef mutant (input typically 30-500 pg/mL p24 capsid equivalents) in the presence or absence of Nef inhibitor analogs. IL-2 is included in the media at the time of infection. After 4 days, cells are lysed with 1% Triton X-100 for 1.5 h, checked for viability via Cell Titer Blue, and frozen/stored at −20° C. HIV-1 replication is assessed with a high-sensitivity HIV-1 p24 AlphaLISA assay (Perkin Elmer) in ½-volume 96-well plates, using one-half of the recommended assay volumes for all reagents (including samples). Assays are read on the BioTek Cytation5 instrument; readout is in AlphaUnits and replication in p24 pg/mL is determined using an HIV-1 p24 capsid protein standard included in the Alpha kit.

[5] = target: T1, HIV-1 Nef SF2 (Human immunodeficiency virus type 1 group M subtype B, UniProt P03407); assay: biochemical; assay type: binding; conditions: two-step induced-fit model, Reichert SPR, read-out: Reichert SPR Nef SF2 (M) two-step fitting
T1 construct: made in house

[6] = target: Nef from SIV (strain mac239) (Simian immunodeficiency virus, UniProt Q5QGG3); assay: biochemical
Description: Also shown are SPR data recorded on a Reichert 4-channel SPR instrument. […] Recombinant Nef is immobilized on the biosensor surface, and each compound is injected and association/dissociation kinetics are recorded. The resulting data for the 3 isoforms are each best-fit using both a two-site model and a two-step, induced-fit model. Dissociation constants (KD), calculated from the kinetic association and dissociation constants from all three isoforms, are shown in columns 6-7. Data were fit using three regimes and the resulting KD: from each model are shown in the Table: 1:1 Langmuir fit; 2-site fit, which yields low and high affinity components; and a 2-step induced fit model.

[7] = 1.0 μM, TZM-bl reporter cell line, Table 4, read-out: % Infectivity Inhibition
[8] = 48 h, Table 1, TZM-bl cells, 1 μM, 48 h, 100% = Nef-defective HIV-1, read-out: HIV-1 Infectivity % Inhibition Norm. to Δ-Nef @ 1 μM
[9] = KD, M, Table 4, SPR fit 2-step induced fit, KD = koff/kon × koff2/(koff2 + kon2)
[10] = Nef NL4-3 Binding, SPR 2-state fitting KD, Table 1, 2-step induced-fit model
[11] = read-out: Nef NL4-3 Binding, SPR 1:1 or 2-site fitting KD2, Table 1, 2-site fit, second component
[12] = 1 μM, TZM-bl, normalized: DMSO wild-type HIV-1 = 0%, Nef-defective HIV-1 = 100%, read-out: HIV-1 Infectivity % Inhibition norm. to Δ-Nef @ 1 μM
[13] = Reichert SPR Nef NL43 (M) two-step fitting, KD, two-step induced-fit model, Reichert SPR, Table 3

| Compound | inhibition at 1 µM [1, 7] | inhibition at 1 µM [1, 8] | % Cell Viability [2] | Percent Viability @ 1 μM (TZM-bl cells) [2] | Kd [3] | Kd [3, 9] | Kd [3, 10] | T, minutes (residence time) ([3]; Table 4) | Kd [3, 11] | RU30/RUNef (extent of binding) [3] | IC50 [4] | HIV Replication PBMC IC50 vs. HIV NL4-3 [4] | Kd ([3]; Nef NL4-3 Binding, SPR 1:1 or 2-site fitting KD2, Table 1, 2-site fit, second component) | inhibition at 1 µM [1, 12] | Kd [3, 13] | Kd [5] | Kd [6] |
| --- | --- | --- | --- | --- | --- | --- | --- | --- | --- | --- | --- | --- | --- | --- | --- | --- | --- |
| Oc1c(CCc2ccc(F)cc2)c(C2CCC2)nn1-c1nc2ccccc2[nH]1 [Compound I-129, 1-(1H-1,3-benzodiazol-2-yl)-3-cyclobutyl-4-[2-(4-fluorophenyl)ethyl]-1H-pyrazol-5-ol] | 60.9% | 60.9% | 99.3% | 99.3% | 2.38e-09 M | 3.71e-11 M | 3.71e-11 M | 5.19E + 05 minutes | 1.68e-05 M | 1.28E- 02 | ≤ 10 nM | – | – | – | – | – | – |
| CC(C)(C)OC(=O)N1CCC(c2nn(-c3nc4ccc(Cl)cc4[nH]3)c(O)c2CCc2ccc(F)cc2)CC1 [Compound I-216, tert-butyl 4-[1-(5-chloro-1H-1,3-benzodiazol-2-yl)-4-[2-(4-fluorophenyl)ethyl]-5-hydroxy-1H-pyrazol-3-yl]piperidine-1-carboxylate] | 100% | 176% | 87.1% | 87.1% | 1.24e-07 M | 8.71e-12 M | 8.71e-12 M | 4.71E + 05 minutes | 8.29e-07 M | 1.60E- 02 | – | Not active | – | – | – | – | – |
| Oc1c(CCc2ccc(F)cc2)c(-c2cccc(F)c2)nn1-c1nc2ccccc2[nH]1 [Compound I-110, 1-(1H-1,3-benzodiazol-2-yl)-3-(3-fluorophenyl)-4-[2-(4-fluorophenyl)ethyl]-1H-pyrazol-5-ol] | – | 84.9% | – | 88.4% | – | – | 3.02e-08 M | – | – | – | – | Not active | 2.14e-06 M | – | – | – | – |
| CC(C)(O)C(=O)N1CCC(CCc2c(C3CC3)nn(-c3nc4cc(Cl)ccc4[nH]3)c2O)CC1 [Compound I-712, 1-(4-{2-[1-(5-chloro-1H-1,3-benzodiazol-2-yl)-3-cyclopropyl-5-hydroxy-1H-pyrazol-4-yl]ethyl}piperidin-1-yl)-2-hydroxy-2-methylpropan-1-one] | 52.3% | 52.6% | 100% | 104.4% | 6.85e-08 M | 1.99e-08 M | 1.99e-08 M | 7.54E + 02 minutes | 1.03e-05 M | 1.07E- 02 | – | – | – | 52.6% | 1.99e-08 M | 5.9e-09 M | 2.19 nM |
| CC(=O)N1CCC(Cc2c(-c3ccc(C(F)(F)F)cc3)nn(-c3nc4ccccc4[nH]3)c2O)CC1 [Compound I-720, 1-(4-{[1-(1H-1,3-benzodiazol-2-yl)-5-hydroxy-3-[4-(trifluoromethyl)phenyl]-1H-pyrazol-4-yl]methyl}piperidin-1-yl)ethan-1-one] | 92.2% | 92.2% | 71.4% | 71.4% | 1.19e-06 M | 1.81e-06 M | 1.81e-06 M | 1.32E + 00 minutes | – | 2.80E- 03 | – | – | – | 92.2% | 1.81e-06 M | – | 21.8 nM |
| CN(C)S(=O)(=O)N1CCC(c2nn(-c3nc4ccccc4[nH]3)c(O)c2CCc2ccc(F)cc2)CC1 [Compound I-746, 4-[1-(1H-1,3-benzodiazo1-2-y1)-4-[2-(4-fluorophenyl)ethyl]-5-hydroxy-1H-pyrazol-3-yl]-N,N-dimethylpiperidine-1-sulfonamide] | – | 194% | – | 101.6% | 7.96e-07 M | – | – | – | – | – | – | – | – | 194% | – | 6.84e-06 M | 49.3 nM |
| Oc1c(CCc2ccc(F)cc2)c(-c2ccc(C(F)(F)F)cn2)nn1-c1nc2ccccc2[nH]1 [Compound I-119, 1-(1H-1,3-benzodiazol-2-yl)-4-[2-(4-fluorophenyl)ethyl]-3-[5-(trifluoromethyl)pyridin-2-yl]-1H-pyrazol-5-ol] | 80.7% | 80.7% | 77.1% | 77.1% | 1.89e-11 M | – | – | – | 6.83e-06 M | 7.52E- 03 | – | Not active | – | – | – | – | – |
| Oc1c(CCc2ccc(F)cc2)c(-c2ccc(C(F)(F)F)cc2)nn1-c1nc2ccc(Cl)cc2[nH]1 [Compound I-161, 1-(6-chloro-1H-1,3-benzodiazol-2-yl)-4-[2-(4-fluorophenyl)ethyl]-3-[4-(trifluoromethyl)phenyl]-1H-pyrazol-5-ol] | 38.7% | 38.7% | 89.9% | 89.9% | – | – | – | – | – | 1.44E- 02 | – | Not active | – | – | – | – | – |
| CC(C)(C)OC(=O)N1CCC(CCc2c(-c3ccc(C(F)(F)F)cc3)nn(-c3nc4ccccc4[nH]3)c2O)CC1 [Compound I-204] | 5.8% | 5.8% | 95.1% | 95.1% | – | 2.29e-11 M | 2.29e-11 M | – | 6.35e-11 M | – | ≤ 1000 nM | – | – | – | – | – | – |
| Oc1c(CCc2ccc(F)cc2)c(-c2ccc3c(c2)OC(F)(F)O3)nn1-c1nc2ccccc2[nH]1 [Compound I-145, 1-(1H-1,3-benzodiazol-2-yl)-3-(2,2-difluoro-2H-1,3-benzodioxol-5-yl)-4-[2-(4-fluorophenyl)ethyl]-1H-pyrazol-5-ol] | 0% | -11.7% | 98.2% | 98.2% | – | – | – | – | – | 4.38E- 03 | – | Not active | – | – | – | – | – |
